Results from patent US20090111836A1, “Angular Pyranocoumarins, Process for Preparation and Uses Thereof” (CITY UNIVERSITY OF HONG KONG, priority 2007, published 2009).
Where “and” joins values, the source holds several entries; their conditions need not be identical. Equal values may be shown once. Entries after “also recorded” stand apart in the source; their conditions may differ.

What was measured:
K562-DR cells = assay: MTT growth inhibition assay, K562-DR; format: cell-based, human; details: IC50 K562-DR / IC50 K562
Description: K562, K562-DR, HepG2, HepG2-DR were cultured in RPMI-1640 medium containing 10% fetal bovine serum and 100 U/mL, antibiotics. […] Drug test: […] New calorimetric cytotoxicity assay for anticancer-drug screening. […] Mosmann T. Rapid colorimetric assay for cellular growth and survival: application to proliferation and cytotoxicity assays. […] Gerlier D, Thomasset N. […] Each growth inhibition experiment must be repeated three times and results are expressed as mean±standard deviation (SD). Solvents and media were included as blank control. In MTT assay, cells are inoculated at 5000 cells/well and are incubated overnight. Drug treatment lasts for 68 h. MTT (5 mg/ml in PBS) is added to each well (1:10 dilution). […] Viable cell number is estimated by correlating to OD at 570 nm.

HepG2-DR cells = assay: Reversal of multidrug resistance (fold decrease of anticancer drug IC50), HepG2-DR; format: cell-based, human
Description: (§1) Cells and cell culture: cell lines used in the experiments are human hepatoma cell line (HepG2), human leukemia cell line (K562), human epidermoid carcinoma cell line (KB-3-1) and their multidrug resistant sublines HepG2-DR, K562-DR. and KB V1. The culture conditions for all cells are following: at 37° C. and 5% CO2), KB-3-1 and KBV1 were cultured in MEM medium containing 10% fetal bovine serum and 100 U/mL antibiotics; K562, K562-DR, HepG2, HepG2-DR were cultured in RPMI-1640 medium containing 10% fetal bovine serum and 100 U/mL, antibiotics. For maintaining the phenotypic characteristics of multidrug resistance, 1.2 μM and 0.1 μM doxorubicin were respectively added into the mediums of HepG2-DR and K562-DR; 200 ng/mL vinblastine was added into the medium of KBV1. Drug resistant cells were grown in drug free medium for at least 7 days before test.
(§2) Each growth inhibition experiment must be repeated three times and results are expressed as mean±standard deviation (SD). Solvents and media were included as blank control.
(§3) In SRB assay, cells are inoculated at 5000 cells/well in a 96-well microplate and incubated overnight to let cells adhere. Drug treatment lasts for 72 hours and cells are fixed for 1 hour at 4° C. with 50 μl ice-cold 15% trichloroacetic acid and washed with triple-distilled water 5 times. Cellular protein is stained by adding 50 μl of 0.4% SRB in 1% acetic acid for 10 minutes, rinsed with 1% acetic acid 5 times and air-dried. The protein-bound dye is dissolved in 100 μl per well of 10 mM Tris base (pH 10.5). The color intensity of SRB, which positively correlate to cell number in preliminary experiments, is estimated at OD 515 nm.
(§4) 1. Materials and methods: the same with I.
(§5) To evaluate the multidrug resistance reversing ability of (±)-Praeruptorin A derivatives, IC50 values of anticancer drugs in the presence and absence of cis-DMDCK, cis-DMDBK, trans-DMDCK, or trans-DMDBK at certain concentration were determined in HepG2-DR, K562-DR and KB V1 cells. The fold decrease of IC50 value of an anticancer drug in certain cell line achieved by a test compound is calculated (fold decrease=IC50 of an anti-tumor drug alone/IC50 of the anti-tumor drug in combination with the test compound) and is used for evaluating the ability of the test compound to reduce drug resistance. The larger the fold decrease value is, the stronger its ability to reverse drug resistance is. The results were average values of three repetitive tests. Verapamil (P-glycoprotein modulator) is the positive control.

P-gp [1] = assay: Immunoblotting analysis of P-gp expression, HepG2-DR; format: cell-based, human; details: 4 μM, 72 hours
Description: Immunoblotting analysis of P-gp expression: cells were treated with 4 μM of cis-DMDCK, 4 μM of cis-DMDBK, 4 μM of trans-DMDCK, or 4 μM of trans-DMDBK for 72 hours. Treated cells were collected and mixed well in ice-cold lysis buffer (50 mM Tris pH7.4, 100 mM NaCl, 2 mM EDTA, 1% sodium deoxycholate, 0.1% SDS, 1% triton X-100, 2 mM PMSF, 1% aprotinin) for 30 minutes and then centrifuged to get the total protein. Protein concentration was determined using Bradford assay. In this experiment, 50 μg total protein was separated by 8% SDS-PAGE and electro-transferred to nitrocellulose membranes. The membrane was blocked by 5% skim milk/0.1% Tween-20/TBS (10 mM Tris pH7.5, 100 mM NaCl), and then incubated with anti-P-pg antibody for 1 hour, followed by horseradish-peroxidase-conjugated secondary antibody for another 1 hour. Protein bands were detected by the ECL method.

KB V1 cells = assay: Reversal of multidrug resistance (fold decrease of anticancer drug IC50), KB V1; format: cell-based, human
Description: as §1, §2, §3, §4, §5

P-gp [2] = target: P-gp (Homo sapiens, UniProt P08183); assay: Hoechst 33342 efflux assay, HepG2-DR; format: cell-based; set-up: KB V1, HepG2-DR and K562-DR cell expressed P-gp at high level when compared with parental drug sensitive cells thereof; endogenous in cells; host or cells: HepG2-DR (doxorubicin-maintained multidrug resistant subline of HepG2)
Description: Relative amount of intracellular H33342 (%)=100×(FS−F0)/F0
(Fs: cellular fluorescence intensity of H33342 in the presence of a testing drug; F0: cellular fluorescence intensity of H33342 in the absence of any P-gp modulator).
1.4 Hoechst 33342 transport test: HepG2-DR Cells (5×10^4 cells in 100 μL, medium per well) were seeded in 96-well plate and incubated overnight to permit cell attachment. The medium was replaced with fresh medium containing 20 μg/mL Hoechst 33342 and cells were incubated at 37° C. for 1 hour. Cells were then washed with 100 μL ice-cold PBS twice. New medium containing the test compound of various concentrations was added and cells were further incubated at 37° C. for 1 hour. Cells were washed with ice-cold PBS twice and cellular fluorescence intensity was measured at λex=365 nm (λem=460 nm) by a BMG FLUOstar OPTIMA Microplate Reader. Inhibitory effect of the test compound on Hoechst 33342 efflux was expressed as the percentage increase of retained Hoechst 33342 in cells.

P-gp (Homo sapiens, UniProt P08183), sequence (P08183 whole entry): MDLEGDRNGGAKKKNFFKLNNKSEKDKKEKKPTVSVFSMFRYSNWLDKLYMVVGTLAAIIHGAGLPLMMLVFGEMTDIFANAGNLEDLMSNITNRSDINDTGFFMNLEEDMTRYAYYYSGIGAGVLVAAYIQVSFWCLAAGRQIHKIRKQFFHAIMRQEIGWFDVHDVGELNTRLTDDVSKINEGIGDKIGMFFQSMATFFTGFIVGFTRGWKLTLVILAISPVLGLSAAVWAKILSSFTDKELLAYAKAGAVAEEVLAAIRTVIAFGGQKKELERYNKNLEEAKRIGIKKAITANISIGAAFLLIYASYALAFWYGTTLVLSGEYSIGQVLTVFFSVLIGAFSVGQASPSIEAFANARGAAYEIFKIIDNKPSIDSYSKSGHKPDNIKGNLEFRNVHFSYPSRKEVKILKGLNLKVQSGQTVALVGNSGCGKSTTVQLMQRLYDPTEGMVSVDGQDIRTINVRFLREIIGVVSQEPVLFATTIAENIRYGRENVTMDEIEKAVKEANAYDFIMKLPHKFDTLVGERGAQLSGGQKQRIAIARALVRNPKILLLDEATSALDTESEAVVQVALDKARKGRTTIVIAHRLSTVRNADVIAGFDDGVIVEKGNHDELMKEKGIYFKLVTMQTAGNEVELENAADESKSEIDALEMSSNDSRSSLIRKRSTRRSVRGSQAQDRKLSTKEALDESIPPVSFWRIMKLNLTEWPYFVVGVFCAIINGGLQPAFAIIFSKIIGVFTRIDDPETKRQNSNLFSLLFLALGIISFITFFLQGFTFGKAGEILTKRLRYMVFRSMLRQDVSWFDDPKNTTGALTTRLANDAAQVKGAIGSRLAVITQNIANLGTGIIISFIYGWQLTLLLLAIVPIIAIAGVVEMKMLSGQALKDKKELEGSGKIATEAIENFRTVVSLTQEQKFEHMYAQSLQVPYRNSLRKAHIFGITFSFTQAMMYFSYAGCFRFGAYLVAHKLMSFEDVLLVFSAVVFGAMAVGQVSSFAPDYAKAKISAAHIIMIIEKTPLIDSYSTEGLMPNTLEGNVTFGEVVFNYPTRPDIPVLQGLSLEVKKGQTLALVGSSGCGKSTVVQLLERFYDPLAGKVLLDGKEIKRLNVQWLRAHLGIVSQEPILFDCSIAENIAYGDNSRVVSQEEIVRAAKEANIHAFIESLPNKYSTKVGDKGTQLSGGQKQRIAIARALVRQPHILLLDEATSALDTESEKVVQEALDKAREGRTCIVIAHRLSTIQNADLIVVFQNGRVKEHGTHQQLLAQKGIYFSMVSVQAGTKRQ

Row | Reversing parameter: fold decrease of IC50 of Doxorubicin (HepG2-DR cells; 1 μM test compound) | Reversing parameter: fold decrease of IC50 of Puromycin (HepG2-DR cells; 1 μM test compound) | Reversing parameter: fold decrease of IC50 of Vinblastine (HepG2-DR cells; 1 μM test compound) | Reversing parameter: fold decrease of IC50 of Doxorubicin (HepG2-DR cells; 2 μM test compound) | Reversing parameter: fold decrease of IC50 of Puromycin (HepG2-DR cells; 2 μM test compound) | Reversing parameter: fold decrease of IC50 of Vinblastine (HepG2-DR cells; 2 μM test compound) | Reversing parameter: fold decrease of IC50 of Doxorubicin (HepG2-DR cells; 4 μM test compound) | Reversing parameter: fold decrease of IC50 of Puromycin (HepG2-DR cells; 4 μM test compound) | Reversing parameter: fold decrease of IC50 of Vinblastine (HepG2-DR cells; 4 μM test compound) | Reversing parameter: fold decrease of IC50, verapamil (KB V1 cells; KB V1, 2 μM test compound) [fold] | Reversing parameter: fold decrease of IC50 of Doxorubicin (KB V1 cells; KB V1, 2 μM test compound) [fold] | Reversing parameter: fold decrease of IC50 of Puromycin (KB V1 cells; KB V1, 2 μM test compound) [fold] | Reversing parameter: fold decrease of IC50 of Vinblastine (KB V1 cells; KB V1, 2 μM test compound) [fold] | Reversing parameter: fold decrease of IC50, verapamil (KB V1 cells; KB V1, 4 μM test compound) [fold] | Reversing parameter: fold decrease of IC50 of Doxorubicin (KB V1 cells; KB V1, 4 μM test compound) [fold] | Reversing parameter: fold decrease of IC50 of Puromycin (KB V1 cells; KB V1, 4 μM test compound) [fold] | Reversing parameter: fold decrease of IC50 of Vinblastine (KB V1 cells; KB V1, 4 μM test compound) [fold] | Highest increase of cellular Hoechst 33342 fluorescence (P-gp [2]; 20 μM) | Compound | Resistant ratio (K562-DR cells) | Change in P-gp (MDR1) expression level (P-gp [1]) | other results
1 | 6.2 ± 0.7 fold | 4.6 ± 1.3 fold | 4.8 ± 4.1 fold | 33.5 ± 7.5 fold | 15.4 ± 4.6 fold | 12.4 ± 6.1 fold | 117.1 ± 13.8 fold | 74.6 ± 21.2 fold | 82.1 ± 13.1 fold | 6.8 ± 2.9 | 5.6 ± 2.4 | 15.4 ± 3.3 | 3.5 ± 1.4 | 83.3 ± 35.3 | 16.1 ± 9.5 | 36.8 ± 16.6 | 51.6 ± 11.0 | – | COc1ccc(C(=O)O[C@@H]2c3c(ccc4ccc(=O)oc34)OC(C)(C)[C@@H]2OC(=O)c2ccc(OC)c(OC)c2)cc1OC (racemic) [cis-DMDBK, (±)-3′-O,4′-O-bis(3,4-dimethoxybenzoyl)-cis-khellactone] | 0.91 | no detectable alteration; also recorded: not observed | Reduction of drug resistance to the four anti-tumor drugs (HepG2-DR cells; 4 μM test compound, range over vinblastine, doxorubicin, puromycin, paclitaxel): 62-117 times; Highest increase of cellular Hoechst 33342 fluorescence (P-gp [2]; 10 μM): 200%
2 | 22 fold and 22.5 ± 9.1 fold | 29 fold and 29.5 ± 13.0 fold | 45 fold and 45.7 ± 10.3 fold | 107 fold and 107.9 ± 51.9 fold | 111 fold and 111.1 ± 38.0 fold | 105 fold and 105.7 ± 21.2 fold | 160 fold and 160.6 ± 12.6 fold | 140 fold and 140.9 ± 65.1 fold | 130 fold and 129.9 ± 35.5 fold | 128.2 ± 53.8 | 19.1 ± 11.1 | 61.4 ± 31.3 | 115.0 ± 17.6 | 499.8 ± 202.8 | 50.0 ± 19.1 | 131.0 ± 7.1 | 331.2 ± 155.4 | – | COc1ccc(/C=C/C(=O)O[C@@H]2c3c(ccc4ccc(=O)oc34)OC(C)(C)[C@@H]2OC(=O)/C=C/c2ccc(OC)c(OC)c2)cc1OC (racemic) [cis-DMDCK, (±)-3′-O,4′-O-bis(3,4-dimethoxycinnamoyl)-cis-khellactone] | 1.29 | no detectable alteration; also recorded: not observed | Reversing parameter: fold decrease of IC50, verapamil (KB V1 cells; KB V1, 1 μM test compound): 9.0 ± 9.7 fold; Reversing parameter: fold decrease of IC50 of Doxorubicin (KB V1 cells; KB V1, 1 μM test compound): 8.9 ± 2.3 fold; Reversing parameter: fold decrease of IC50 of Puromycin (KB V1 cells; KB V1, 1 μM test compound): 37.0 ± 14.4 fold; Reversing parameter: fold decrease of IC50 of Vinblastine (KB V1 cells; KB V1, 1 μM test compound): 2.3 ± 0.8 fold; Highest increase of cellular Hoechst 33342 fluorescence (P-gp [2]; 5 μM): 200%
3 | – | – | – | 3.8 ± 1.6 fold | 4.6 ± 1.4 fold | 1.5 ± 0.3 fold | 58.2 ± 17.2 fold | 28.5 ± 0.2 fold | 19.3 ± 10.4 fold | – | – | – | – | 2.2 ± 0.4 | 2.7 ± 0.9 | 8.4 ± 4.2 | 1.4 ± 0.2 | about 150% | COc1ccc(C(=O)O[C@@H]2[C@@H](OC(=O)c3ccc(OC)c(OC)c3)c3c(ccc4ccc(=O)oc34)OC2(C)C)cc1OC (racemic) [trans-DMDBK, (±)-3′-O,4′-O-bis(3,4-dimethoxybenzoyl)-trans-khellactone] | 1.50 | no detectable alteration; also recorded: not observed | –
4 | – | – | – | 8.0 ± 0.6 fold | 5.6 ± 0.6 fold | 1.9 ± 0.0 fold | 59.4 ± 18.5 fold | 26.6 ± 6.4 fold | 13.9 ± 5.8 fold | – | – | – | – | 6.0 ± 3.1 | – | 15.3 ± 2.5 | – | about 150% | COc1ccc(/C=C/C(=O)O[C@@H]2[C@@H](OC(=O)/C=C/c3ccc(OC)c(OC)c3)c3c(ccc4ccc(=O)oc34)OC2(C)C)cc1OC (racemic) [trans-DMDCK, (±)-3′-O,4′-O-bis(3,4-dimethoxycinnamoyl)-trans-khellactone] | 1.42 | no detectable alteration; also recorded: not observed | –
